Results on two compounds are retold here after US20180153886A1, “USE OF TR[…] PREPARATION OF DRUGS FOR PREVENTING AND TREATING LIVER DISEASES” (priority 2015, published 2018).

For data set [1] the following is noted: in vivo; listed as trimetazidine, dihydrochloride; cited from earlier work.
The subject of data set [2] is patients with liver failure / serious hepatitis. In words: Clinical cases: individual patients given oral TMZ on top of combined treatment. Format: in vivo, human. An excerpt: Case 1: The patient had past positive HBsAg for over 20 years, during which they took multiple reexaminations of liver function and, as the results of all color ultrasound examinations were within normal range, they were not given any special treatment. Three months before, after catching cold and overwork, they developed abdominal distension and yellow urine, and was admitted to hospital following aggravation of the condition over 6 days. On admission, they were complicated with massive seroperitoneum and serious xanthochromia throughout the skin and mucosa of their whole body, feeling serious nausea, anorexia and feebleness.
Case 2: had had yellow urine for 25 days and dry mouth and bitter taste in mouth for 10 days before they came to the First Affiliated Hospital of Zhengzhou University. […] If they had been treated with the original approach, it would probably have taken two months before they could be discharged from hospital.
Case 3: had past positive HBsAg for 8 years, without regular treatment or periodic reexamination of relevant indicators. […] They took orally some “stomach medicine” (specific medicine not known) with poor effect. After the aforesaid symptoms aggravated for half a month, with urine turning as yellow as strong tea water, they were admitted to the First Affiliated Hospital of Zhengzhou University on Jan. 21, 2015. […] In merely 12 days, the patient achieved decrease of transaminase by dozens of times, relief from the critical condition, alleviated hepatocyte inflammatory responses and a favorable condition for liver cells, and greatly shortened length of hospitalization.
Case 4: […] They felt abdominal distension and nausea, accompanied with hydroncus in lower limbs, when they got tired half a month ago. For further treatment, they were admitted to the First Affiliated Hospital of Zhengzhou University on Jan. 13, 2015. Color ultrasound examination of abdomen detected diffuse changes of echo patterns of liver, cholecystolithiasis and cholecystitis. […] The patient's liver enzyme decreased to normal level after a short period, meeting the requirements for a surgical operation. Following the operation, their abdominal pain disappeared, with liver enzyme back to normal level and improved appetite. Their quality of life improves now without any discomfort.
Case 5: had past positive HBsAg for over 10 years, with HBsAg (+), HBeAg (+) and HBcAb (+), and had atrial fibrillation over 5 years, during which they orally took traditional Chinese medicine intermittently, but without regular treatment. They complained of feebleness, nausea, dry mouth and bitter taste, and anorexia for 6 days, and was hospitalized on Jan. 31, 2015. After admission, they had ALT 1881 u/L, AST 699 u/L, and prothrombin time activity (PTA) at 26%. The patient was extremely weak, in very poor spirits, with very poor appetite. A notice of critical illness diagnosis was given. […] The patient achieved a rapid decrease of transaminase and obvious improvement of liver synthesis function, and was safe from the critical condition. They continued to take the medicine till maturity of the treatment course, to improve the hepatocyte microcirculation and excretion of bilirubin. The patient soon recovered and left hospital.

Data set [3] concerns liver failure patients. Description: Clinical trial involving 165 cases of liver failure, TMZ vs traditional therapeutic approach (general treatment). Format: in vivo, human.
The test system of data set [4] is liver failure patients. In words: Single-center cohort clinical trial, trimetazidine (TMZ) vs DCA control, liver function indicators ALT/AST. Format: in vivo, human. The conditions noted are these: after 5 days of treatment, FIG. 2. An excerpt:
Evaluate if trimetazidine is capable of improving the liver function of patients with hepatic failure.
The single-center cohort study was adopted as the clinical trial method.
In accordance with relevant references and the results of previous trails, the number of cases shall be no less than 50. Taking into account the number of loss to follow up and possible drop-out (to be controlled around 10%), 60 cases are required to be selected (30 cases for the trial group and 30 cases for the control group).
All serious hepatitis patients enrolled between Aug. 19, 2014 and […] were put in the control group; and all those enrolled between December 9 and the application date were in the trial group.
2. Exclusion Criteria • Patients under 18 or over 70 years old; • patients diagnosed with shock liver (ischemic liver disease); • patients with liver failure in pregnance or HELLP syndrome; • patients with liver failure secondary to malignant tumor in the liver; • patients with refractory hypotension • patients with septic shock; • patients about to receive liver transplant (within 8 hours); • patients allergic to trimetazidine drug; • patients […] of trimetazidine drug; • abuser of drugs and/or alcohol; • pregnant or lactation women; • patients with recent myocardial infarct (within half a year); • patients with serious renal inadequacy.
2. Control group: Diisopropylamine Dichloroacetate (DCA) (80 mg/D) for the control group in this trial, provided by Dandong Yichuang Pharmaceutical Co., Ltd, for a 4-week course of treatment.
3. […] HBV-related liver failure patients were also treated with lamivudine.
1. Alanine aminotransferase (ALT), tested by chromatometry, with products provided by Roche Diagnostics (Shanghai) Ltd.
2. Aspartate transaminase (AST), tested by chromatometry, with products provided by Roche Diagnostics (Shanghai) Ltd.

[5] abbreviates: Case 5, one week plus another 5 days of TMZ.

`COc1ccc(CN2CCNCC2)c(OC)c1OC.Cl.Cl` [TMZ, 1-[2,3,4-trimethoxybenzyl] piperazine dihydrochloride]: in data set [1], the elimination half-life result is “approximately 6 hours”. Besides, the AST in data set [2] (Case 1, 12 days after start of TMZ, on admission AST 303 u/L) is 68 u/L; in data set [2] (Case 2, oral TMZ for 20 days, on admission AST 484 u/L), 52 u/L; in data set [2] (Case 3, reexamination February 5, on admission AST 1368 u/L) it was 85 u/L; in data set [2] (Case 4, oral TMZ for 13 days, on admission AST 663 u/L), 79 u/L; in data set [2] (Case 5, one week after start of oral TMZ, after admission AST 699 u/L), 77 u/L; in data set [2] (setting [5]) it was 226 u/L. For the same compound, the ALT in data set [2] (Case 1, HBsAg positive, 12 days after start of TMZ 1 tablet 3 times a day, on admission ALT 270 u/L) amounted to 41 u/L; in data set [2] (Case 2, serious drug-induced hepatitis, oral TMZ for 20 days, on admission ALT 983 u/L), 95 u/L; in data set [2] (Case 3, acute-on-chronic liver failure, admitted Jan. 21, 2015, reexamination February 5, on admission ALT 1386 u/L), 76 u/L; in data set [2] (Case 4, HBsAg positive, oral TMZ for 13 days, on admission ALT 599 u/L), 66 u/L; in data set [2] (Case 5, one week after start of oral TMZ, after admission ALT 1881 u/L), 255 u/L; in data set [2] (setting [5]), 117 u/L. For the same compound, the total bilirubin in data set [2] (Case 2, oral TMZ for 20 days, on admission 401.9 umol/L) came out at 130 µmol/L. Moreover, the “prothrombin time activity (PTA)” value in data set [2] (Case 3, reexamination February 5, on admission 27.4%) amounted to 57.8%; in data set [2] (Case 5, one week after start of oral TMZ, after admission 26%) it was 48%; in data set [2] (setting [5]) it was 50%. Besides, the 30-day immortality rate result with liver failure patients [3] (TMZ 20 mg tablet orally 3 times a day, 4 weeks, traditional therapeutic approach 44%, FIG. 5) is “approximately 18%”. The compound also displayed a 90-day immortality rate in the data set on liver failure patients [3] (TMZ 20 mg tablet orally 3 times a day, 4 weeks, traditional therapeutic approach 68%, FIG. 5) of 35%. Moreover, in the data set on liver failure patients [3] (laboratory test indicators, FIG. 3), the “decrease rate of alanine aminotransferase and aspartate transaminase” value is “significantly raise the decrease rate”. In addition, the “serious adverse reaction during the clinical trial” value in the data set on liver failure patients [3] (liver failure patients) is “no serious adverse reaction occurred”. Also, in the data set with liver failure patients [3] (one liver failure patient, before vs after taking TMZ, FIG. 4), the “hepatic glucose metabolism (PET-CT)” value is “remarkably improved”. In the data set on liver failure patients [4], the “ALT decrease (k, mathematical model analysis)” value is on record as 259.4. Besides, the “AST decrease (k, mathematical model analysis)” value in the data set with liver failure patients [4] was 362.53.
With Diisopropylamine Dichloroacetate [DCA], in the data set on liver failure patients [4], the “ALT decrease (k, mathematical model analysis)” value is 67.325 and the “AST decrease (k, mathematical model analysis)” value is 142.77.
